# In US5493007A, “Platelet aggregation inhibitors having high specificity for GPIIBIIIA” (Genentech, Inc., priority 1994, dated 1996):
# Where a SMILES comes first, the peptide text is derived from it. Bridges are numbered along the chain shown (N, C = ends). [ ]: non-standard residue; d: D form. Pen = CC(C)(S)[C@H](N)C(=O)O
# Legend:
# [1] = tested on: platelet rich plasma (PRP); experiment: Rabbit ex-vivo platelet aggregation (XPA), ADP-induced; assay type: in vivo; details: Example 1
# Protocol: Catheters are flushed and locked after every sample.
# […] of PRP is placed in a disposable glass cuvette with a stir bar. The cuvette is placed in the temperature regulated light path of a light transmittance aggregometer (Chrono-log) and equilibrated to a 37° C. Baseline transmittance is recorded for 30 seconds, after which […] of ADP (1 mM) is added and the change in transmittance recorded. The maximum change from baseline (dT) is noted for each sample. The extent of inhibition of XPA that is produced by an inhibitor is calculated for each animal as follows: Mean dTs are calculated for the pre and post infusion values, and then, percent inhibition is calculated as (1-dt (post)/ddt (pre))×100.
# [2] = tested on: New Zealand White rabbits; experiment: Rabbit cutaneous bleeding time (CBT); details: for Rabbit BT Ratio: Example 1, at the % P.A. inhibition given
# Protocol: Unanesthetized male New Zealand White rabbits (2.5-3.5 kg) are placed in a standard rabbit restrainer. Ears are shaved and a 20 G Teflon catheter with flowswitch (Viggo) is placed in the medial artery, flushed with saline and locked with 1 ml of heparinized saline (10 m/ml). A 22 G catheter (Abbott) fitted with an injection cap (Medex) is placed in the marginal vein of the same ear. Saline or a GP IIb IIIa receptor antagonist, at a concentration of 1 to 3 mg/ml, is infused via the venous catheter. At time 0, 41% of the dose is given as a bolus over 2 minutes. The remainder is continuously infused over the following 60 minutes. Blood samples (3.2 ml) are collected into syringes without needles via the arterial catheter at -10, -5, 10, 45, and 60 minutes. The first 0.5 ml is discarded and the following 2.7 ml is collected directly into a syringe containing 0.3 ml of 3.8% sodium citrate. The sample is divided into 1.5 ml aliquots and centrifuged at room temperature for 5 seconds at 12,000 G. The resulting platelet rich plasma (PRP) is used to measure ex-vivo platelet aggregation (XPA). At -10 and 60 minutes an additional 1 cml sample is drawn for an automated blood count (Baker instruments). Catheters are flushed and locked after every sample.
# CBT is measured at -10, -5, 10, and 45 minutes on the opposite ear, using an automated incision-making instrument (Surgicutt®, ITD). An incision (5mm×1 mm deep) is made on the dorsal surface of the ear at sites not supplied by major blood vessels. Blood is blotted away with absorbent paper placed near the incision site, every 2 to 15 seconds, to a maximum of 15 minutes. Cessation of bleeding is defined as no blood forming at the incision site for 15 seconds. The range of duplicate CBT in 40 normal rabbits was 0.88 to 3.38 minutes.
# [3] = molecular target: T1, Vitronectin Receptor (αvβ3) (Homo sapiens, UniProt P05106+P06756); experiment: Human Vitronectin-Vitronectin Receptor (αvβ3) ELISA Assay; assay type: binding; details: purified human αvβ3, vitronectin-coated plates; read-out: ELISA IC50 Vitronectin VnR
# T1 construct: Human vitronection receptor (VnR) is purified from human placenta; from tissue; host or cells: human placenta
# Description: Human vitronectin (Vn) is isolated from human plasma and purified by affinity chromatography by the method of Yatohgo et. al., (Cell Structure and Function 13:281-292 [1988]).
# Human vitronection receptor (VnR) is purified from human placenta by the method of Pytela et al., (Methods Enzymol., 144:475 [1987]). Alternatively the αvβ3 receptor can be purified from some cell lines (e.g., human embryonic kidney 293 cells) transfected with DNA sequences for both the αv and β3 subunits. The subunits are purified by employing octylglucoside extraction followed by Con-A, Heparin-Sepharose, and S-300 Chromatography.
# Anti-GP IIb IIIa monoclonal antibodies specific for human GP IIIa are prepared by the method of Newman et al. (Blood, 65:227-232 [1985]), or a similar procedure. This mouse Mab is specific for the β3 subunit of the vitronectin receptor.
# Rabbit Fab 2 anti-mouse Fc fragment horse radish peroxidase conjugate (anti-MuFc HRP) is obtained from PelFreeze (cat. no. 715305-1).
# Maxisorp microtiter plates are coated with 2 μg/ml human vitronectin dissolved in PBS ([…]) and stored overnight at 4° C. The plates are washed two times with PBS-0.05% Tween-20 (wash buffer) and blocked by incubating with about 150 μl/well of assay buffer (1%, BSA [RIA grade or better] in 50 mM Tris-HCl, 100 mM NaCl, 1 mM MgCl2, CaCl2, MnCl2 pH 7.4) for 60 minutes. Dilutions of standards are prepared and putative inhibitors (Table 3) are dissolved in assay buffer. The blocked plates are emptied and 25 μl/well of inhibitor or standard solution is added to each well. Twenty-five μl of a 30 μg/ml solution of purified αvβ3 in assay buffer is pipetted into the coated plate. The final concentration of receptor in the assay well is about 15 μg/ml. The plate is incubated on a shaker for 60 minutes. Meanwhile, for each microtite plate, 6 ml buffer solution containing 1.5 μg/ml of mouse monoclonal antibody specific for β3 is prepared. To this solution is added μl of the secondary antibody, which is anti-mouse-Fc-HRP antibody conjugate. For example, for one plate, prepare 6 ml of a 1.5 μg/ml mouse Mab solution to which is added 1 μl of anti-mouse-Fc-HRP antibody stock, (this represents a 1:6000 dilution of the antibody - HRP conjugate). This mixture is allowed to incubate during the receptor-inhibitor incubation. The assay plates are washed 4 times with PBS-Tween and 50 μl/well of the antibody mixture is then pipetted into the plate for a 60 minute incubation. The plate is washed 4 times and the color reaction is developed with 50 μl/well of 0.67 mg/ml o-phenyldiamine in PBS containing 0.012% H2 O2. Alternatively, 16 mM citric acid, 50 mM Na2 PO4 at pH 5.0 can be used as a substrate buffer. The reaction is stopped with 50 μl/well 1M H2 SO4. The plates are read at 492-405 nm and the data analyzed by four-parameter fit.
# [4] = molecular target: human platelet rich plasma (PRP) (Homo sapiens, UniProt P05106+P08514); experiment: In Vitro Human Platelet Aggregation Assay; assay type: cell-based; details: human PRP; read-out: Human Platelet Aggregation IC50
# Protocol: Platelet aggregation assays are performed in human platelet rich plasma (PRP). Fifty milliliters of whole human blood (9 parts) is drawn on 3.6% sodium citrate (1 part) from a donor who has not taken aspirin or related medications for at least two weeks. The blood is centrifuged at 160×g for 10 minutes at 22° C. and allowed to stand for 5 minutes after which the PRP is decanted. Platelet poor plasma (PPP) is isolated from the remaining blood after centrifugation at 2000×g for 25 minutes. The platelet count of the PRP is diluted to about 300,000 platelets per microliter with PPP.
# A 225 μl aliquot of PRP plus 25 μl of either a dilution of the test inhibitor sample or a control (PBS) is incubated for 5 minutes in a Chrono-log Whole Blood Aggregometer at 25° C. An aggregating agent (collagen, 1 μg/ml; U46619, 100 ng/ml; or ADP, 17 μM) is added and the transmission is recorded.
# GP IIb IIIa [5] = molecular target: T2, GP IIb IIIa (Homo sapiens, UniProt P05106+P08514); experiment: GP IIb IIIa -von Willebrand factor (vWF) ELISA Assay; assay type: binding; design: GP IIb IIIa, prepared by the method of Fitzgerald et al; from tissue; details: GP IIb IIIa-coated plates, vWF; read-out: ELISA IC50 GPIIb IIIa vWF
# Protocol: Microtiter plates are coated with 1.0 μg/ml GP IIb IIIa, prepared by the method of Fitzgerald et al., (Anal. Biochem. 151:169-177 [1985]) and allowed to incubate overnight in coat buffer. The plates are then washed three times in wash buffer (0.05% Tween 20 in PBS) and 150 μl of assay buffer is added and allowed to incubate for 1-2 hours at room temperature on plate shaker. The plates are washed three times and 50 μl of 2x inhibitor in assay buffer (Assay buffer: 0.5% BSA/50 mM Tris, 100 mM NaCl, 1.0 mM CaCl2, 1.0mM MgCl2, 1.0 mM MnCl2; coat buffer is the same but without BSA) is added. Fifty μl of 4.0 μg/ml vWF (prepared as described by Ledford et al., Thrombosis and Haemostasis, 64(4): 569-575 [1990]) in assay buffer is then added and allowed to incubate for one hour at room temperature on plate-shaker. The plates are washed three times and the antibody mixture is added (1:5000 of mouse anti-vWF and 1:5000 of rabbit-anti-mouse-Fc-HRP, both commercially available) in assay buffer and incubated for 1 hour at room temperature on plate-shaker. Plates are again washed three times and 100 μl of substrate solution (10 mg OPD, 6.5 μl H2 O2, 15 ml phosphate citrate buffer) is added and incubated at room temperature. The color change of OPD/H2 O2 reagent is read at 492 nm with a 405 nm reference wavelength on the filter photometer.
# Fibronectin Receptor [6] = molecular target: T3, Fibronectin Receptor (Homo sapiens, UniProt P05556+P08648); experiment: Human Fibronectin-Fibronectin Receptor ELISA Assay; assay type: binding; design: octylglucoside (OG) extracted human placenta; from tissue; host or cells: human placenta; details: human placenta fibronectin receptor, fibronectin-coated plates; read-out: ELISA IC50 Fibronectin FnR
# Protocol: Fibronectin receptor is purified according to the procedures of Pytela et al., (Methods Enzymol. 144:475 […]). Briefly, fibronectin receptor is purified employing an Arg-Gly-Asp affinity chromatography from (100 mM) octylglucoside (OG) extracted human placenta. The OG extract is filtered over Sepharose 6B GRGDSPK column. The column is washed three times with three column volumes of Tris-buffered saline (TBS) TBS, 1 mM CaCl2, and 25 mM OG. The receptor is eluted with TBS, 20 mM EDTA, and 25 mM Octyl thioglucoside, and is stored in 1 mM CaCl2, 1 mM MgCl2, at -80° C.
# Microtiter plates are coated with 110 μl human fibronectin (at 2 μg/ml) in TBS. Plates are washed three times with TBS containing 0.05% Tween 20. Test inhibitors are then added after washing in 10 microliter aliquots. The fibronectin receptor is added in 2-fold serial dilutions with TBS containing 20 mM octyl glucoside and 2 mM MnCl2. Plates are incubated three hours at room temperature, and washed with 200 μl TBS-Tween 20 buffer. 100 μl of affinity-purffied rabbit anti-human fibronectin receptor antibody is added to the wells and the plates are incubated two hours, washed twice with TBS-Tween and once with distilled water. Affinity-purified goat anti-rabbit IgG conjugated to horseradish peroxidase (100 μl) is added to each well followed by incubation for 60 minutes at room temperature. Plates are again washed twice with TBS-Tween and distilled water. 100 μl of substrate mixture (10 mg o-phenylenediamine in 25 ml 0.1M citrate-phosphate buffer, pH 5.0 6 μ30% H2 O2) is added to the plates and allowed to develop. The development process is stopped by adding 50 μl of 4N H2 SO4 to each well and read at […].
# vitronectin receptor = vitronectin receptor (Homo sapiens, UniProt P05106+P06756); details: cited from earlier work
# Fibronectin Receptor [7] = molecular target: T3, Fibronectin Receptor; details: Pierschbacher et al. 1987; cited from earlier work
# [8] = tested on: New Zealand White rabbits; experiment: Rabbit peripheral blood flow and CBT, laser Doppler series; assay type: in vivo; details: 1 mg intravenously over 2 minutes at 60 minutes, within 5 minutes, laser doppler probe
# Protocol: In an alternative series of experiments, (Table 2 ) PBF was measured quantitatively with a laser Doppler flow probe (Perimed). The probe was positioned securely over the vascular bed of one ear and flow monitored continuously. Each inhibitor was infused and CBT measured in the opposing ear. No arterial catheter was placed for blood sampling, consequently XPA was not measured in these animals.
# As a positive control, epinephrine was infused intravenously (1 mg over 2 minutes.) at 60 minutes. The resulting vasoconstriction reduced flow to near 0 flow units within 5 minutes.
# GP IIb IIIa [9] = molecular target: T2, GP IIb IIIa; details: Kirchofer et al. 1990; versus αvβ3 and α5β1; cited from earlier work
# T3 sequence (P08648 42-894 limits assumed): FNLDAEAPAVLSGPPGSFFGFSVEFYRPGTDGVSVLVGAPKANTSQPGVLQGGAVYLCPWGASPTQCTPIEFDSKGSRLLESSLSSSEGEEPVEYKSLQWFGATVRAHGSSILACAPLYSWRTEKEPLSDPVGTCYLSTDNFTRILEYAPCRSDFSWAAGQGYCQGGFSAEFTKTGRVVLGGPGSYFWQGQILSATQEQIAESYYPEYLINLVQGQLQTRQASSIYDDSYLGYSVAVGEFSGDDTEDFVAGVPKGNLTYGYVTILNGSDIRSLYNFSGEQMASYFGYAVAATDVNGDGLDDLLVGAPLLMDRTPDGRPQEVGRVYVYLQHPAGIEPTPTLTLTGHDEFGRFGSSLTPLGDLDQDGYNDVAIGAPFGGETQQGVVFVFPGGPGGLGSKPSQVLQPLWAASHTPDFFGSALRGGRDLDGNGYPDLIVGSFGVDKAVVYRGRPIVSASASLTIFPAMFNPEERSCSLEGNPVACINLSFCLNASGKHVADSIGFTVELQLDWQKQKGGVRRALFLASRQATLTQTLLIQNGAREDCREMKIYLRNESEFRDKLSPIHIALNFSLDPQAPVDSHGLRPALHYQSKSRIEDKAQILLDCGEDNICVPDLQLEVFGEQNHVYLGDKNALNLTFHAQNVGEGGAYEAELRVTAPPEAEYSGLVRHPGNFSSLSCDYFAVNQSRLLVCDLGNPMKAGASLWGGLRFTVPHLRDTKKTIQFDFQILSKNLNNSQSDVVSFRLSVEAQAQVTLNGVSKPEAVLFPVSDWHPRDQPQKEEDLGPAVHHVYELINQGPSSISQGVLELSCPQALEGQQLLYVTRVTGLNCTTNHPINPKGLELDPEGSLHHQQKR
# T3 sequence (P08648 895-1049 partner limits assumed): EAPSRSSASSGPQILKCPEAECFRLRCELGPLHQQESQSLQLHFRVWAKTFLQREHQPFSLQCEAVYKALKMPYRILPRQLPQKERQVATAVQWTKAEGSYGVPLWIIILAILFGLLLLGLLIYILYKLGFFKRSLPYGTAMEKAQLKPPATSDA
# T3 sequence (P05556 21-798): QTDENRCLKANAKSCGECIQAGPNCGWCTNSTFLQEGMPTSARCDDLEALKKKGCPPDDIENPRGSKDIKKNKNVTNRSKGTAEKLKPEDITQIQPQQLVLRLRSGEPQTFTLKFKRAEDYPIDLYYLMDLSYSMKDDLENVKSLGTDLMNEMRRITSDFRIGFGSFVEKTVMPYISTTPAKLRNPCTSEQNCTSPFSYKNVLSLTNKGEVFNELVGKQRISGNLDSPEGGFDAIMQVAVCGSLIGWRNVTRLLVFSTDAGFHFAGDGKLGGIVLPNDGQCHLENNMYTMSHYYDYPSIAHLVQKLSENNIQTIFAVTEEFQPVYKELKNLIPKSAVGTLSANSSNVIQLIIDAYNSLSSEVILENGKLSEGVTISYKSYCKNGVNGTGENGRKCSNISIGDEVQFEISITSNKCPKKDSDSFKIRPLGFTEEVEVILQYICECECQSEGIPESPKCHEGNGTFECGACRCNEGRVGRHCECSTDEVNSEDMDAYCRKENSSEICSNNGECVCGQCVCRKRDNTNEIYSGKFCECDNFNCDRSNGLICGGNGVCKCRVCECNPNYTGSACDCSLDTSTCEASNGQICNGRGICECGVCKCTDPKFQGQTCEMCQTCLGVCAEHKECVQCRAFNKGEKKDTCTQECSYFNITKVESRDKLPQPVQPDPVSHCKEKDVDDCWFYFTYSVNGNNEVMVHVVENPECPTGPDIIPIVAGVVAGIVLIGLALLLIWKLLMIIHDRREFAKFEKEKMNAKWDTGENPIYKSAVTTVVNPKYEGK
# Sequence of vitronectin receptor (P06756 31-889 limits assumed): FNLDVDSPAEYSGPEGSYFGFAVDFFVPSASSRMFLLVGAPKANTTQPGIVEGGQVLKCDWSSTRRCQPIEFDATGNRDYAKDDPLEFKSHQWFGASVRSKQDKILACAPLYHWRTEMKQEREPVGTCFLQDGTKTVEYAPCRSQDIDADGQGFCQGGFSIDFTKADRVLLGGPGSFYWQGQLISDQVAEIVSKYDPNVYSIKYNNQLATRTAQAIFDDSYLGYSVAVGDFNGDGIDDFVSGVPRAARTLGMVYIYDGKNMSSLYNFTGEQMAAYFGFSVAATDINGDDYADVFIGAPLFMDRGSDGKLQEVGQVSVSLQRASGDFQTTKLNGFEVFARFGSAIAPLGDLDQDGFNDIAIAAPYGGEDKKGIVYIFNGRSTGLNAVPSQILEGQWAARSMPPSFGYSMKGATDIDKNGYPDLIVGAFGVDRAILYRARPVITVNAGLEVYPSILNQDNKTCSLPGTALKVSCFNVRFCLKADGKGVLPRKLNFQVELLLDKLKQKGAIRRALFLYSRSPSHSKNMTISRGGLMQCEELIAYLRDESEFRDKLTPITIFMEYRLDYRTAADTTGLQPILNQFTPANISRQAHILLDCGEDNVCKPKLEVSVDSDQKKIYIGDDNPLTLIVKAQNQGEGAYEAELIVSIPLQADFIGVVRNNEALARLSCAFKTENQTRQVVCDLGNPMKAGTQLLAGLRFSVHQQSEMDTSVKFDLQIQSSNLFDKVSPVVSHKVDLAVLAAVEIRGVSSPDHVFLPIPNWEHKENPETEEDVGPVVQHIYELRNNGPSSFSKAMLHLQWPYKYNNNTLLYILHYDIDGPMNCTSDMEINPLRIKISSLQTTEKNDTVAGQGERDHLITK
# Sequence of vitronectin receptor (P06756 891-1048 partner limits assumed): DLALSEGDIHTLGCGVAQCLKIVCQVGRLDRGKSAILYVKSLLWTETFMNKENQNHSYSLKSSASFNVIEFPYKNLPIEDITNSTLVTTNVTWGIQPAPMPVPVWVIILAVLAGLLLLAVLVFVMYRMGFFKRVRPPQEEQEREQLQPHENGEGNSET
# Sequence of vitronectin receptor (P05106 27-788): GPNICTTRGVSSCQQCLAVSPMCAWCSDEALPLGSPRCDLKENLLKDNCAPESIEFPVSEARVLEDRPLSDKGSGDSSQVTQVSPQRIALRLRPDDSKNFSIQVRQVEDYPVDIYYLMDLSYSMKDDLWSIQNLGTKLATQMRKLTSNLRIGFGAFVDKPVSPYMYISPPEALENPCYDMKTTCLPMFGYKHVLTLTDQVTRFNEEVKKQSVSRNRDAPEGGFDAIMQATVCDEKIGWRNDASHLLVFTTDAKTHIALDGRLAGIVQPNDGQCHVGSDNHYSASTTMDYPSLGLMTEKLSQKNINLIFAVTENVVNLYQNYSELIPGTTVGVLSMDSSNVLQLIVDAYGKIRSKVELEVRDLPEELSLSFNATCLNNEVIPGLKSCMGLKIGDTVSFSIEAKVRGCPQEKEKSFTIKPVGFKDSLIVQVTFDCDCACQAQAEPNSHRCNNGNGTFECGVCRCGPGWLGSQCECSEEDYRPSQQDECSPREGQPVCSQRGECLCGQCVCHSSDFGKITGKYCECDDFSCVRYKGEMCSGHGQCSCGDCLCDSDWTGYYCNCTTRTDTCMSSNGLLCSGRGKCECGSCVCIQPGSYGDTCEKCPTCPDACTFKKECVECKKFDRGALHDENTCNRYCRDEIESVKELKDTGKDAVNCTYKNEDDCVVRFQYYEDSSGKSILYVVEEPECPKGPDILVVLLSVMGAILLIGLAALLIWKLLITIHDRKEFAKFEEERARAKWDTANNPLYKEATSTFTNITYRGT
# T1 sequence (P06756 31-889 limits assumed): as the sequence (P06756 31-889 limits assumed) above
# T1 sequence (P06756 891-1048 partner limits assumed): as the sequence (P06756 891-1048 partner limits assumed) above
# T1 sequence (P05106 27-788): as the sequence (P05106 27-788) above
compound,measurement,setting,value
CC1(C)SCC(=O)N[C@H](Cc2ccc(O)cc2)C(=O)N[C@@H](CCCCN)C(=O)NCC(=O)N[C@@H](CC(=O)O)C(=O)N[C@@H]1C(=O)O [7/47] ({CH2CO}-[dY]KGD[Pen]-OH; thioether N-5),Rabbit % P.A. Inhibition (ex vivo),[1],96%
same,"cutaneous bleeding time, result in words",[2],prolongation of bleeding time in vivo in both the rabbit and dog model
same,Rabbit BT Ratio,[2]; rabbit,8.57
same,increase of cutaneous bleeding time compared to the undosed animal,"[2]; rabbit, dose sufficient to achieve about 97% inhibition of platelet aggregation",8.6 times
"N=C(N)NCCC[C@@H]1NC(=O)[C@@H](Cc2ccc(O)c(Br)c2)NC(=O)C[S+]([O-])C[C@@H](C(=O)N[C@@H](CCCCN)C(N)=O)NC(=O)[C@H](CC(=O)O)NC(=O)CNC1=O (single isomer, unassigned) [7/36]",Rabbit % P.A. Inhibition (ex vivo),[1],91%
same,Rabbit BT Ratio,[2]; rabbit,0.77
"N=C(N)NCCC[C@@H]1NC(=O)[C@@H](Cc2ccc(O)cc2)NC(=O)C[S+]([O-])C[C@@H](C(=O)N[C@H](CCCNC(=N)N)C(N)=O)NC(=O)[C@H](CC(=O)O)NC(=O)CNC1=O (single isomer, unassigned) [7/34]",Rabbit % P.A. Inhibition (ex vivo),[1],64%
same,Rabbit BT Ratio,[2]; rabbit,0.94
"NCCCC[C@@H]1NC(=O)[C@@H](Cc2ccc(O)cc2)NC(=O)C(c2ccccc2)SC[C@@H](C(=O)O)NC(=O)[C@H](CC(=O)O)NC(=O)CNC1=O (single isomer, unassigned) [7/45, cyclo-S-phenylacetyl-dTyr--Lys--Gly--Asp--Cys--OH]",IC50,[3],> 20000 nM
same,IC50,[4],220 nM
same,Rabbit BT Ratio,[2]; rabbit,4.47
same,IC50,GP IIb IIIa [5],1 nM
same,IC50,Fibronectin Receptor [6],> 10000 nM
Gly-Pen-Gly-Arg-Gly-Asp-Ser-Pro-Cys-Ala,"effectiveness at inhibiting the vitronectin-vitronectin receptor interaction, cyclized versus uncyclized peptide",vitronectin receptor; Pierschbacher et al. 1987,10 times
same,"inhibition of the fibronectin-fibronectin receptor interaction, in words",Fibronectin Receptor [7],ineffective
"cyclic-1,7-VRGDSPDG","integrin selectivity, in words",vitronectin receptor; Kirchofer et al. 1990,preferentially inhibited αvβ3 (vitronectin receptor) binding to vitronectin
CNC[C@H](O)c1ccc(O)c(O)c1 [epinephrine],peripheral blood flow after positive control,[8],~0 flow units
"cyclic-2,10-GPenGHRGDLRCA","integrin selectivity, in words",GP IIb IIIa [9],preferentially inhibits the binding of GP IIb IIIa to fibrinogen
"N=C(N)NCCC[C@H](NC(=O)[C@@H]1C[S+]([O-])CC(=O)N[C@H](Cc2ccc(O)cc2)C(=O)N[C@@H](CCCNC(=N)N)C(=O)NCC(=O)N[C@@H](CC(=O)O)C(=O)N1)C(N)=O (single isomer, unassigned) [7/32]",Rabbit % P.A. Inhibition (ex vivo),[1],99%
same,Rabbit BT Ratio,[2]; rabbit,1.17
